{"source": "patent US12729393B2", "about": "“Agent interaction effects determination” (priority 2020, dated 2026)"}
{"tested_on": "Escherichia coli reference strain K12-MG1655", "test": "CombiANT self-interaction experiments (3 reservoirs filled with the same antibiotic)", "type": "cell-based", "conditions": "3 biological replicates; Wilcoxon signed rank test", "from_the_text": "FIG. 17 illustrates self-interaction experiments of the Escherichia coli reference strain K12-MG1655. FICi for all self-interactions for the 8 antibiotics AMP, CIP, CTX, GEN, FOF, NIT, MEC, TMP. Bars indicate average FICi values and standard deviation (SD) of 3 biological replicates.\nFirst, as controls, we performed self-interaction experiments, where the 3 culture container insert reservoirs were filled with the same antibiotic. […] Next, to verify that the CombiANT™ assay produced valid synergy quantifications, we ran an accuracy and precision study. We tested all pairwise antibiotic interactions in the two Gram-negative reference strains E. coli […] and P. aeruginosa PA14, and the Gram-positive S. aureus reference strain ATCC29213 against a panel of 4 antibiotics. The tested antibiotics, ampicillin (AMP), cefotaxime (CTX), ciprofloxacin (CIP), and gentamicin (GEN), spanned three distinct mechanisms of action and are commonly used in treatments of bacteremia and sepsis caused by these bacterial species. FICi indices were calculated for all 6 pair-wise interactions and all three strains (FIG. 18A)."}
{"molecule": "O=C(O)c1cn(C2CC2)c2cc(N3CCNCC3)c(F)cc2c1=O", "note": "[CIP, ciprofloxacin]", "nature of self-interaction (FICi)": "additive"}
{"molecule": "CC1(C)S[C@@H]2[C@H](/N=C/N3CCCCCC3)C(=O)N2[C@H]1C(=O)O", "note": "[MEC, mecillinam]", "nature of self-interaction (FICi)": "additive"}
{"molecule": "CO/N=C(\\C(=O)N[C@@H]1C(=O)N2C(C(=O)O)=C(COC(C)=O)CS[C@H]12)c1csc(N)n1", "note": "[CTX, cefotaxime]", "nature of self-interaction (FICi)": "additive"}
{"molecule": "COc1cc(Cc2cnc(N)nc2N)cc(OC)c1OC", "note": "[TMP, trimethoprim]", "nature of self-interaction (FICi)": "additive"}
{"molecule": "CC1(C)S[C@@H]2[C@H](NC(=O)[C@H](N)c3ccccc3)C(=O)N2[C@H]1C(=O)O", "note": "[AMP, ampicillin]", "nature of self-interaction (FICi)": "additive"}
{"molecule": "C[C@@H]1O[C@@H]1P(=O)(O)O", "note": "[FOF, fosfomycin]", "nature of self-interaction (FICi)": "additive"}
{"molecule": "gentamicin", "nature of self-interaction (FICi)": "additive"}
